Test results: patent publication US20260021082A1, “EZH2 INHIBITION THERAPIES FOR THE TREATMENT OF AT-RICH INTERACTIVE DOMAIN-CONTAINING PROTEIN 1A (ARID1A) MUTATED CANCERS” (Constellation Pharmaceuticals, Inc., priority 2022, published 2026)
Where two headings read alike, the source gives them in different places.

How the values were obtained:
[1] = long-term cell viability assays in vitro, comparison of PRC2 inhibitors; assay type: cell-based
Procedure: Response of Compound 1 treatment relative to other EZH2, dual EZH1 and EZH2, or EED inhibitors was analyzed in vitro and in vivo.

[2] = tested on: panel of 21 bladder cancer cell lines; test: 18-day viability, summary over the panel; assay type: cell-based; details: 432 h
Description: Black bar indicates cell line carrying at least one ARID1A stop-gain (denoted by an *) or frameshift (fs) allele as detailed below the chart. Green bar indicates line carrying a single missense mutation, while grey bars indicate those lines with no mutations in the coding region of ARID1A. Data represented as an average of duplicate wells±SD and are representative of duplicate independent experiments.
The cell lines used were obtained from ATCC (Manassas, VA), DSMZ (Braunschweig, Germany), ECACC (Salisbury, UK or through Sigma), or JCRB (Osaka, Japan) and were grown in media recommended by the vendor (or indicated in supplementary methods table 1) and maintained at 37° C. in humidified incubators with 5% CO2. Cell lines were maintained in T75 flasks and subcultured by releasing from plates with TrypLE solution (Thermo Fisher Scientific/Invitrogen #12604021) every 2-4 days, depending on growth kinetics of the cell line, to maintain growth at subconfluent levels.
A panel of 21 bladder cancer cell lines was evaluated for their response to Compound 1. […] No association between Compound 1 sensitivity and baseline levels of EZH1, EZH2, H3K27me3, ARID1A or ARID1B by western blot were observed.

[3] = tested on: H3K27me3 levels in HT1376 cells; test: H3K27me3 level, 3-day MSD ELISA; assay type: cell-based; details: Homo sapiens, HT-1376, HT1376, H3K27me3, 72 hours
Procedure: (§1) H3K27me3 and total H3 expression levels in cells and tumor tissues were analyzed by Meso Scale Discovery (MSD) ELISA. For assays with cultured cell lines, trypsinzed cells were counted using a Countess® cell counter (Life Technologies) and plated in 100 μL of cell culture medium onto 96-well tissue culture treated plates containing Compound 1 (9 concentrations in a series of 3-fold dilutions) and incubated at 37° C. in 5% CO2 for 24-96 hours, depending on the assay.
(§2) As with EZH2 inhibitors in other cancer cell line contexts, the cell viability effects in Compound 1 sensitive bladder cancer cell lines are time-dependent.

[4] = tested on: H3K27me3 levels in VMCUB1 cells; test: H3K27me3 level, 3-day MSD ELISA; assay type: cell-based; details: Homo sapiens, VM-CUB-1, VMCUB1, H3K27me3, 72 hours
Procedure: as §1, §2

[5] = tested on: H3K27me3 levels in BFTC905 cells; test: H3K27me3 level, 3-day MSD ELISA; assay type: cell-based; details: Homo sapiens, BFTC-905, BFTC905, H3K27me3, 72 hours
Procedure: as §1, §2

[6] = tested on: H3K27me3 levels in 639V cells; test: H3K27me3 level, 3-day MSD ELISA; assay type: cell-based; details: Homo sapiens, H3K27me3, 72 hours
Procedure: as §1, §2

[7] = tested on: H3K27me3 levels in KU1919 cells; test: H3K27me3 level, 3-day MSD ELISA; assay type: cell-based; details: Homo sapiens, KU-19-19, KU1919, H3K27me3, 72 hours
Procedure: as §1, §2

[8] = tested on: H3K27me3 levels in HT1376 tumors; test: global H3K27me3 levels in HT1376 xenograft tumors; assay type: in vivo, mice; details: day 10, maintained at day 31
Procedure: Data represented as mean+SD, n=3 tumors per group. P-values calculated using unpaired Student's t-test, **p<0.01, ***p<0.0001.
Data points represent measurement from individual tumors sampled at given timepoint and error bars reflect the mean+SEM. Two tumors were assayed at day 12 and five were assayed at day 31. […] No data for 150 mg/kg at day 31 as tumors were too small for analysis.
as §1
To further explore the potential dose dependence of Compound 1 on tumor growth inhibition in vivo, HT1376 xenograft studies were carried out using Compound 1 doses from 10 to 150 mg/kg QD orally once daily (PO, QD).

[9] = average of replicates, read-out: EC50 (nM) 3-day MSD Avg
[10] = replicate 1, read-out: EC50 (nM) 3-day MSD Replicate 1
[11] = replicate 2, read-out: EC50 (nM) 3-day MSD Replicate 2
[12] = replicate 3, read-out: EC50 (nM) 3-day MSD Replicate 3
[13] = replicate 4, read-out: EC50 (nM) 3-day MSD Replicate 4

**Q.** For COC1CN([C@H]2CC[C@H]([C@@]3(C)Oc4c(Cl)cc(C(=O)NCc5c(SC)cc(C)[nH]c5=O)c(C)c4O3)CC2)C1 [Compound 1, (R)-7-chloro-2-((1r,4R)-4-(3-methoxyazetidin-1-yl)cyclohexyl)-2,4-dimethyl-N-((6-methyl-4-(methylthio)-2-oxo-1,2-dihydropyridin-3-yl)methyl)benzo[d][1,3]dioxole-5-carboxamide], which GI50 [1] is on record?
**A.** Its GI50 is about 5 nM.

**Q.** What about the GI50 ([2]; sensitive subset (6) of the bladder cancer lines, after 18 days of treatment, read-out: GI50) of the same compound?
**A.** The GI50 was 3 to 37 nM.

**Q.** And the GI50 ([2]; unresponsive (resistant) lines (15), 18 days, read-out: 18-day GI50)?
**A.** Its GI50 is over 5000 nM.

**Q.** And the EC50 [3, 9]?
**A.** Its EC50 is 0.151 nM.

**Q.** And the EC50 [3, 10]?
**A.** The EC50 was 0.148 nM.

**Q.** What about the EC50 [3, 11] of the same compound?
**A.** The EC50 was 0.112 nM.

**Q.** And the EC50 [3, 12]?
**A.** The EC50 was 0.127 nM.

**Q.** What about the EC50 [3, 13] of the same compound?
**A.** Its EC50 is 0.217 nM.

**Q.** And the EC50 [4, 9]?
**A.** Its EC50 is 0.149 nM.

**Q.** And the EC50 [4, 10]?
**A.** The EC50 was 0.117 nM.

**Q.** What about the EC50 [4, 11] of the same compound?
**A.** Its EC50 is 0.18 nM.

**Q.** What about the EC50 [5, 9] of the same compound?
**A.** Its EC50 is 0.098 nM.

**Q.** What about the EC50 [5, 10] of the same compound?
**A.** The EC50 was 0.1 nM.

**Q.** And the EC50 [5, 11]?
**A.** The EC50 was 0.096 nM.

**Q.** And the EC50 [6, 9]?
**A.** Its EC50 is 0.076 nM.

**Q.** And the EC50 [6, 10]?
**A.** The EC50 was 0.065 nM.

**Q.** What about the EC50 [6, 11] of the same compound?
**A.** Its EC50 is 0.086 nM.

**Q.** What about the EC50 [7, 9] of the same compound?
**A.** Its EC50 is 0.434 nM.

**Q.** What about the EC50 [7, 10] of the same compound?
**A.** Its EC50 is 0.533 nM.

**Q.** And the EC50 [7, 11]?
**A.** The EC50 was 0.405 nM.

**Q.** What about the EC50 [7, 12] of the same compound?
**A.** Its EC50 is 0.414 nM.

**Q.** And the EC50 [7, 13]?
**A.** The EC50 was 0.383 nM.

**Q.** What about the “reduction of global H3K27me3 levels in HT1376 tumors” value ([8]; 10 mg/kg PO QD) of the same compound?
**A.** The value was at least 80%.

**Q.** What about the “reduction of global H3K27me3 levels in HT1376 tumors” value ([8]; 25 mg/kg and higher doses PO QD) of the same compound?
**A.** Its value is over 90%.
